We go through 51 compounds from patent US20240316047A1, “INHIBITORS OF RNA HELICASE DHX9 AND USES THEREOF” (ACCENT THERAPEUTICS, INC., priority 2022, published 2024).

The target in this assay is Human recombinant DHX9 protein (Homo sapiens (Human), UniProt Q08211). The experiment in a line: DHX9 ATPase assay (ADP-Glo). It counts as biochemical. The settings on record: for IC50: read-out: DHX9 Biochemical Inflection Point.
Sequence of Human recombinant DHX9 protein (Q08211 whole entry): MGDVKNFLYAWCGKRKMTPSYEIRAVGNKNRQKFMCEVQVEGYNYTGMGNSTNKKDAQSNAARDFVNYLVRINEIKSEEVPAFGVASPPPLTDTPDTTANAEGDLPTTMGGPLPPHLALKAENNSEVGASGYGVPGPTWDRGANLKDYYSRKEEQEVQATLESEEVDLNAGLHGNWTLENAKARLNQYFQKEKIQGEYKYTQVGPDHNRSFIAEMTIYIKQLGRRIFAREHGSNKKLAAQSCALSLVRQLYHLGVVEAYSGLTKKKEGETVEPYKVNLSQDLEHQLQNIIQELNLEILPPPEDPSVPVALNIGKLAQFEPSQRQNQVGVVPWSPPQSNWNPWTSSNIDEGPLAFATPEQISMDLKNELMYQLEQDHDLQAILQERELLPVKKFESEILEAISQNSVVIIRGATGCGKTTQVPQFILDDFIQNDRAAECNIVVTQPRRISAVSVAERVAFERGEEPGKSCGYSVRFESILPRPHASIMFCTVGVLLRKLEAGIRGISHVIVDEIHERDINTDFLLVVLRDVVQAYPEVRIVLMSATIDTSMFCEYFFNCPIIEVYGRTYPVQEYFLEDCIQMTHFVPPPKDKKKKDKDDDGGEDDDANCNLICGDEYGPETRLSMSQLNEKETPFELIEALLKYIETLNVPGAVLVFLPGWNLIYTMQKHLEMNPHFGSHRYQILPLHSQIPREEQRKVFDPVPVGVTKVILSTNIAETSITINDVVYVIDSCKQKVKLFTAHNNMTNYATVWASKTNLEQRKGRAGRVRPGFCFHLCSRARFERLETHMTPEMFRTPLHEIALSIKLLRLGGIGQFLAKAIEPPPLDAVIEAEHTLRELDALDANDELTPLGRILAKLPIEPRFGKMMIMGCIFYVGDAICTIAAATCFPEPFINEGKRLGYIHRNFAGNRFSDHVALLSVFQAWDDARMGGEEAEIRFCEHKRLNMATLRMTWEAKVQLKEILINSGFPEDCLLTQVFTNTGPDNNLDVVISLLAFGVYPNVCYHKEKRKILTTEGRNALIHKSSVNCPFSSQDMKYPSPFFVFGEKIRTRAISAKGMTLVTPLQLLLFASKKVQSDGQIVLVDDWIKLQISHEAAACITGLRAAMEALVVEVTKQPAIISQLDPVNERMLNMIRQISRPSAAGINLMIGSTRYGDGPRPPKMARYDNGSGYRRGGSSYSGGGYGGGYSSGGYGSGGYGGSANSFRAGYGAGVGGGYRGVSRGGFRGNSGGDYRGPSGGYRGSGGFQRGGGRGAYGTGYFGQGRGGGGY

Regarding `COc1ccc(-n2cc(C(=O)Nc3cc(Cl)cc(NS(C)(=O)=O)c3)cn2)nc1` [Example 197], the “DHX9 Biochemical Max Inhibition” value was 72.7% and the IC50 came out at 26 nM.

As to `CS(=O)(=O)Nc1cc(Cl)cc(NC(=O)c2cnn(-c3ccc(S(C)(=O)=O)cn3)c2)c1` [Example 198], the “DHX9 Biochemical Max Inhibition” value is reported as 60.7% and the IC50 was 71.3 nM.

`CS(=O)(=O)Nc1cc(Cl)cc(NC(=O)c2cnn(-c3ncccc3S(C)(=O)=O)c2)c1` [Example 199]: the “DHX9 Biochemical Max Inhibition” value is recorded as 73.4% and the IC50 was determined as 84.4 nM.

For `CN(C)S(=O)(=O)c1ccc(-n2cc(C(=O)Nc3cc(Cl)cc(NS(C)(=O)=O)c3)cn2)nc1` [Example 200], the “DHX9 Biochemical Max Inhibition” value amounted to 57.7% and the IC50 is 84.6 nM.

For the compound `CP(C)(=O)c1cccnc1-n1cc(C(=O)Nc2cc(Cl)cc(NS(C)(=O)=O)c2)cn1` [Example 201], the “DHX9 Biochemical Max Inhibition” value came to 66.1% and the IC50 worked out at 184 nM.

Take `CS(=O)(=O)Nc1cc(Cl)cc(NC(=O)c2cnn(-c3ncc(F)cc3OCc3cccc(F)c3)c2)c1` [Example 202]: the “DHX9 Biochemical Max Inhibition” value is 72.3% and the IC50 was 12.7 nM.

`CS(=O)(=O)Nc1cc(Cl)cc(NC(=O)c2cnn(-c3ncc(F)cc3OCc3cccc(C#N)c3)c2)c1` [Example 203]: the “DHX9 Biochemical Max Inhibition” value is 76.5% and the IC50 came to 28.1 nM.

Consider `Cc1ccc(OCc2cccc(F)c2)c(-n2cc(C(=O)Nc3cc(Cl)cc(NS(C)(=O)=O)c3)cn2)n1` [Example 204], for which the “DHX9 Biochemical Max Inhibition” value was 68.9% and the IC50 was 9.6 nM.

Turning to `CS(=O)(=O)Nc1cc(Cl)cc(NC(=O)c2cnn(-c3ncccc3OCc3nccs3)c2)c1` [Example 205], the “DHX9 Biochemical Max Inhibition” value came out at 71.4% and the IC50 was found to be 22.6 nM.

For `CS(=O)(=O)Nc1cc(Cl)cc(NC(=O)c2cnn(-c3ncccc3OCc3cn[nH]c3)c2)c1` [Example 206], the “DHX9 Biochemical Max Inhibition” value is reported as 74.9% and the IC50 was determined as 16.8 nM.

On to `Cc1cc(C(=O)Nc2cc(Cl)cc(NS(C)(=O)=O)c2)cn1-c1ncc(F)cn1` [Example 207], for which the “DHX9 Biochemical Max Inhibition” value was determined as 70% and the IC50 stood at 15.2 nM.

As to `CCOc1cnc(-n2cc(C(=O)Nc3cc(Cl)cc(NS(C)(=O)=O)c3)cc2C)nc1` [Example 208], the “DHX9 Biochemical Max Inhibition” value turned out to be 79.9% and the IC50 was 15.5 nM.

Consider `CS(=O)(=O)Nc1cc(Cl)cc(NC(=O)c2cc3ccccn3c2)c1` [Example 209], for which the “DHX9 Biochemical Max Inhibition” value was 64% and the IC50 worked out at 89.4 nM.

Turning to `CS(=O)(=O)Nc1cc(Cl)cc(NC(=O)c2cnn(-c3ccccc3OCc3cccc(F)c3)c2)c1` [Example 210], the “DHX9 Biochemical Max Inhibition” value turned out to be 71.3% and the IC50 is 3.6 nM.

Regarding `CS(=O)(=O)Nc1cc(Cl)cc(NC(=O)c2cnn(-c3c(F)cccc3OCc3cccc(F)c3)c2)c1` [Example 211], the “DHX9 Biochemical Max Inhibition” value was 65.4% and the IC50 amounted to 62.4 nM.

Turning to `CNC(=O)c1sc(C(=O)Nc2cc(Cl)cc(NS(C)(=O)=O)c2)cc1-c1ncccc1OCc1ccccc1` [Example 212], the “DHX9 Biochemical Max Inhibition” value is given as 72.6% and the IC50 amounted to 5.2 nM.

Take `CN(C)C(=O)c1sc(C(=O)Nc2cc(Cl)cc(NS(C)(=O)=O)c2)cc1-c1ncccc1OCc1ccccc1` [Example 213]: the “DHX9 Biochemical Max Inhibition” value was determined as 71.6% and the IC50 is 16.4 nM.

In the case of `CS(=O)(=O)Nc1cc(F)cc(NC(=O)c2cc(-c3ncccc3OCc3ccccc3)cs2)c1` [Example 214], the “DHX9 Biochemical Max Inhibition” value is given as 75.9% and the IC50 worked out at 88 nM.

For `CS(=O)(=O)Nc1cc(Cl)cc(NC(=O)c2cc(-c3ncccc3OCc3cnco3)cs2)c1` [Example 215], the “DHX9 Biochemical Max Inhibition” value came out at 75.4% and the IC50 turned out to be 4 nM.

Take `CS(=O)(=O)Nc1cc(Cl)cc(NC(=O)c2cc(-c3ncccc3OCc3ccccc3)c(CO)s2)c1` [Example 216]: the “DHX9 Biochemical Max Inhibition” value came out at 78% and the IC50 was determined as 4.4 nM.

Take `CS(=O)(=O)Nc1cc(Cl)cc(NC(=O)c2cc(-c3ncccc3OCc3cccnc3)cs2)c1` [Example 217]: the “DHX9 Biochemical Max Inhibition” value was found to be 69.6% and the IC50 is 2.1 nM.

As for `CSc1ccc(-n2cc(C(=O)Nc3cc(Cl)cc(NS(C)(=O)=O)c3)cn2)nc1` [Example 218], the “DHX9 Biochemical Max Inhibition” value was determined as 59% and the IC50 worked out at 76.5 nM.

In the case of `CSc1cccnc1-n1cc(C(=O)Nc2cc(Cl)cc(NS(C)(=O)=O)c2)cn1` [Example 219], the “DHX9 Biochemical Max Inhibition” value is reported as 62.3% and the IC50 is 40.6 nM.

As to `CS(=O)(=O)Nc1cc(Cl)cc(NC(=O)c2cc(-c3ncccc3NC(=O)C3CC3)cs2)c1` [Example 220], the “DHX9 Biochemical Max Inhibition” value is 79.7% and the IC50 stood at 16 nM.

On to `CN(C)C(=O)Cc1cccnc1-c1csc(C(=O)Nc2cc(Cl)cc(NS(C)(=O)=O)c2)c1` [Example 221], for which the “DHX9 Biochemical Max Inhibition” value was found to be 78.3% and the IC50 is 6.6 nM.

As to `CN(C)C(=O)c1cccnc1-c1csc(C(=O)Nc2cc(Cl)cc(NS(C)(=O)=O)c2)c1` [Example 222], the “DHX9 Biochemical Max Inhibition” value stood at 78.7% and the IC50 came out at 17.7 nM.

In the case of `CS(=O)(=O)Nc1cc(Cl)cc(NC(=O)c2cc(-c3ncccc3C(F)(F)F)cs2)c1` [Example 223], the “DHX9 Biochemical Max Inhibition” value came out at 75.7% and the IC50 amounted to 56.5 nM.

Consider `CCS(=O)(=O)Nc1cc(Cl)cc(NC(=O)c2cc(-c3ncccc3C)cs2)c1` [Example 224], for which the “DHX9 Biochemical Max Inhibition” value amounted to 67.3% and the IC50 is 6.4 nM.

Take `CS(=O)(=O)Nc1cc(Cl)cc(NC(=O)c2cc(-c3ncc(F)cc3OCc3cncc(F)c3)cs2)c1` [Example 225]: the “DHX9 Biochemical Max Inhibition” value is 74.2% and the IC50 was 6.9 nM.

On to `CCS(=O)(=O)Nc1cc(Cl)cc(NC(=O)c2cc(-c3ncc(F)cc3C)cs2)c1` [Example 226], for which the “DHX9 Biochemical Max Inhibition” value is reported as 73.6% and the IC50 was determined as 8.4 nM.

On to `Cc1sc(C(=O)Nc2cc(Cl)cc(NS(C)(=O)=O)c2)cc1-c1ncccc1O` [Example 227], for which the “DHX9 Biochemical Max Inhibition” value is 70.6% and the IC50 was determined as 7.2 nM.

For `CS(=O)(=O)Nc1cc(Cl)cc(NC(=O)c2cc(-c3ncccc3COc3cc(F)cc(F)c3)cs2)c1` [Example 228], the “DHX9 Biochemical Max Inhibition” value is 67.2% and the IC50 worked out at 65.5 nM.

Turning to `CS(=O)(=O)Nc1cc(Cl)cc(NC(=O)c2cc3ccncc3s2)c1` [Example 230], the “DHX9 Biochemical Max Inhibition” value came to 65.9% and the IC50 turned out to be 93 nM.

With `CC(C)c1sc(C(=O)Nc2cc(Cl)cc(NS(C)(=O)=O)c2)cc1-c1ccccn1` [Example 233], the “DHX9 Biochemical Max Inhibition” value is given as 80.3% and the IC50 worked out at 45.5 nM.

Regarding `COCc1sc(C(=O)Nc2cc(Cl)cc(NS(C)(=O)=O)c2)cc1-c1ccccn1` [Example 234], the “DHX9 Biochemical Max Inhibition” value is listed as 84.6% and the IC50 came out at 9.5 nM.

Take `Cc1sc(C(=O)Nc2cc(Cl)cc(NS(C)(=O)=O)c2)cc1-c1cn(Cc2ccccc2)nn1` [Example 235]: the “DHX9 Biochemical Max Inhibition” value is reported as 78.1% and the IC50 was 35.8 nM.

In the case of `Cc1sc(C(=O)Nc2cc(Cl)cc(NS(C)(=O)=O)c2)cc1-c1cn(-c2ccccc2)nn1` [Example 236], the “DHX9 Biochemical Max Inhibition” value was found to be 68.9% and the IC50 stood at 52.1 nM.

For `CS(=O)(=O)Nc1cc(Cl)cc(NC(=O)c2cc(-c3ncccc3Nc3ncccn3)cs2)c1` [Example 237], the “DHX9 Biochemical Max Inhibition” value turned out to be 73.5% and the IC50 turned out to be 21 nM.

For `CN(c1ncccn1)c1cccnc1-c1csc(C(=O)Nc2cc(Cl)cc(NS(C)(=O)=O)c2)c1` [Example 238], the “DHX9 Biochemical Max Inhibition” value was 72.9% and the IC50 worked out at 22.9 nM.

On to `CS(=O)(=O)Nc1cc(Cl)cc(NC(=O)c2cc(-c3ncccc3Oc3cccnc3)cs2)c1` [Example 239], for which the “DHX9 Biochemical Max Inhibition” value is on record as 67.7% and the IC50 stood at 8 nM.

As to `Cc1sc(C(=O)Nc2cc(Cl)cc(NS(C)(=O)=O)c2)cc1-c1c(F)cccc1OCc1ccccc1` [Example 240], the “DHX9 Biochemical Max Inhibition” value came to 71% and the IC50 was found to be 353 nM.

`CS(=O)(=O)Nc1cc(Cl)cc(NC(=O)c2cc(Br)cs2)c1` [Example 241]: the “DHX9 Biochemical Max Inhibition” value came out at 63.8% and the IC50 is 115 nM.

`COC(=O)[C@@H]1CCCN1c1csc(C(=O)Nc2cc(Cl)cc(NS(C)(=O)=O)c2)c1` [Example 242]: the “DHX9 Biochemical Max Inhibition” value amounted to 69.7% and the IC50 stood at 105 nM.

Regarding `CS(=O)(=O)Nc1cc(Cl)cc(NC(=O)c2cc(C3CCNCC3)cs2)c1` [Example 243], the “DHX9 Biochemical Max Inhibition” value is recorded as 73.2% and the IC50 amounted to 92.3 nM.

`CS(=O)(=O)Nc1cc(Cl)cc(NC(=O)c2cc(N3CCNCC3)cs2)c1` [Example 244]: the “DHX9 Biochemical Max Inhibition” value was 71.9% and the IC50 was 73.3 nM.

As for `CS(=O)(=O)Nc1cc(Cl)cc(NC(=O)c2cc(N3CCOCC3)cs2)c1` [Example 245], the “DHX9 Biochemical Max Inhibition” value stood at 71.4% and the IC50 turned out to be 121 nM.

For `CS(=O)(=O)Nc1cc(Cl)cc(NC(=O)c2cc(N3CCN(CC(F)(F)F)CC3)cs2)c1` [Example 246], the “DHX9 Biochemical Max Inhibition” value stood at 67.5% and the IC50 is 186 nM.

Consider `Cc1cc(C(=O)Nc2cc(Cl)cc(NS(=O)(=O)C3CC3)c2)cn1-c1ccc(N2CCOCC2)cn1` [Example 247], for which the “DHX9 Biochemical Max Inhibition” value came out at 70% and the IC50 is 131 nM.

For `Cc1cc(C(=O)Nc2cc(Cl)cc(NS(=O)(=O)C(F)F)c2)cn1-c1ccc(N2CCOCC2)cn1` [Example 248], the “DHX9 Biochemical Max Inhibition” value is on record as 70.8% and the IC50 worked out at 185 nM.

As for `CCS(=O)(=O)Nc1cc(Cl)cc(NC(=O)c2cc(C)n(-c3ccc(N4CCOCC4)cn3)c2)c1` [Example 249], the “DHX9 Biochemical Max Inhibition” value worked out at 64.1% and the IC50 stood at 2.8 nM.

`CS(=O)(=O)Nc1cc(Cl)cc(NC(=O)c2cnn(C3CC4CCC(C3)O4)c2)c1` (stereo not drawn) [Example 250]: the “DHX9 Biochemical Max Inhibition” value is 64.6% and the IC50 was 185 nM.
